Data set [1] has as its system normal cells (NOR-10, MCF 10A). Briefly: Cell viability (MTT) without laser irradiation, normal cells. It is filed as cell-based, murine and human. The following applies: without laser irradiation (dark). As for the experimental part:
(§1) Cell Culture. Cancerous (4T1 [murine] and MDA-MB-231 [human]) and noncancerous (NOR-10 [murine] and MCF-10A [human]) cell lines were purchased from American Type Culture Collection (ATCC, Manassas, Va.). All cells were cultured in DMEM, and supplemented with 10% (v:v) fetal bovine serum and 1% (v:v) antibiotic solution (100 IU/mL penicillin and […]). All cells were maintained at 37° C. in 5% CO2 and in a humidified atmosphere.
(§2) PDT. For PDT, 4T1, MDA-MB-231, NOR-10, and MCF-10A cells were cultured for 24 hours at a density of 5×10^3 on coverslips. Next, cells were exposed to Al-PC, apoHb-Al-PC-Hp, and apoHb-Hp in culture medium at different concentrations. Later, the cells were irradiated with a laser (λ=670 nm) at energy densities between 0.0 J/cm2 and 4 J/cm2 for 15 minutes in the dark.
(§3) Cell Viability. Cell viability was assessed using the MTT assay, which is converted by the mitochondria of viable cells to an insoluble purple precipitate. Briefly, after receiving their treatment, cells were washed with PBS twice and then incubated with 0.5 mg/mL of MTT in culture medium for 2 hours. Then, the MTT solution was washed away, and the purple precipitate was extracted from the cells with 150 μL of dimethyl sulfoxide (DMSO). The absorption was then measured at λ=595 nm using a spectrophotometer (Spectramax; Molecular Devices).

Data set [2] relates to cancerous cells (4T1, MDA-MB-231). The format is cell-based. The following applies: without laser irradiation (dark). As for the experimental part:
as §1, §2, §3

The conditions of data set [3]: unit not given; cited from earlier work.
The nature of data set [4]: Stability of apoHb-Al-PC on dialysis against PBS. The format is physicochemical. On the procedure: Stability of ApoHb-Al-PC. […] The sample was then dialyzed against PBS using 6-8 kDa cellulose dialysis membranes to remove any residual EtOH. Dialysis was performed over three days with daily exchange of the PBS buffer. The UV-visible absorbance spectra of samples were measured before and after dialysis.

In data set [5] the test system is Hp. Briefly: HPLC-SEC of apoHb-Mn-IX binding to Hp. Set-up: species or system human. Particulars: excess apoHb, detection of Mn-IX. As for the experimental part:
Diagnostic/therapeutic solutions tested here consisted of either Mn-porphyrin IX chloride (Mn-IX) or aluminum phthalocyanine (Al-PC) chloride. The Mn-IX solution was made by dissolving 2.5 mg of Mn-IX in 0.5 mL of 0.1 M NaOH. For Al-PC, 1 mg of Al-PC was dissolved in 1 mL of pure EtOH, then 50 μL of the saturated solution was diluted into 1 mL of pure EtOH (the second dilution ensured that the Al-PC is monomeric in solution). […] From the stock diagnostic/therapeutic solutions, either 2 μl of the stock Mn-IX or 100 μl of the Al-PC solutions was added to the protein samples. The resultant mixtures had their absorbance spectras measured via UV-visible spectroscopy and were separated via size exclusion chromatography (SEC) using an Acclaim SEC-1000 (4.6×300 mm) column (Thermo Fisher Scientific, Waltham, Mass.) attached to a Dionex UltiMate 3000 system (Thermo Fisher Scientific, Waltham, Mass.). The mobile phase consisted of 50 mM potassium phosphate, pH 7.4.
Target sequence in this assay (P00738 19-160 limits assumed): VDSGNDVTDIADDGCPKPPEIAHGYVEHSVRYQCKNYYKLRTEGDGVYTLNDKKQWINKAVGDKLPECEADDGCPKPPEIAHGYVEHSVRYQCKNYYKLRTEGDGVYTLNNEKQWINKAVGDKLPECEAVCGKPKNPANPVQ
Target sequence in this assay (P00738 162-406 limits assumed): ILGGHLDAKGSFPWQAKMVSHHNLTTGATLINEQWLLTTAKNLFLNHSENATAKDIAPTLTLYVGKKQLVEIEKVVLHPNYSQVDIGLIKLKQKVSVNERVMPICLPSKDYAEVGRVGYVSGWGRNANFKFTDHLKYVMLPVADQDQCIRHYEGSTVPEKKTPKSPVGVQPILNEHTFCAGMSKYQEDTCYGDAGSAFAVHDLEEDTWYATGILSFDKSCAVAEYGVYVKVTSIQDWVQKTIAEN
Target sequence in this assay (P69905 2-142 partner limits assumed): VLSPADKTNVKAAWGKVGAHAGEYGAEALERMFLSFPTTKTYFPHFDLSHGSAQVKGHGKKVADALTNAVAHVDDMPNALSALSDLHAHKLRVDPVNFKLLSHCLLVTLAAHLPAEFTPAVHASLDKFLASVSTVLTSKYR
Target sequence in this assay (P68871 2-147 partner limits assumed): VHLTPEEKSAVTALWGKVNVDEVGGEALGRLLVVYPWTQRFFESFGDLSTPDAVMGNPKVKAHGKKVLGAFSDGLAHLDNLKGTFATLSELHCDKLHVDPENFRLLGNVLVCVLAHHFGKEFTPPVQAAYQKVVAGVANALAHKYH

The test system of data set [6] is Hp. Particulars: cited from earlier work.
Target sequence in this assay (P00738 162-406 limits assumed): as the sequence (P00738 162-406 limits assumed) above
Data set [7] in a line: Specificity of Al-PC binding to proteins (UV-visible absorbance at 680 nm). The following applies: absorbance at 680 nm after Al-PC addition in PBS.
Experimental: The stock Al-PC solution was diluted 100× into 100% EtOH.
The concentrations of Hp, HSA, Hb and rHb in solution were 1.0 mg/mL, 0.35 mg/ml (and 3.5 mg/ml), 0.35 mg/mL, and 0.33 mg/mL respectively.
Data set [8] is described as follows: O2-Hb/PolyHb equilibrium binding curves (Hemox Analyzer). It is filed as biochemical. An excerpt: (§4) The Hb used in this exampler was purified from human RBCs via tangential flow filtration (TFF), as described previously. Hb was polymerized with glutaraldehyde under complete deoxygenation in the tense (T) quaternary state at a 25:1 molar ratio of glutaraldehyde to Hb. After polymerization, PolyHb was clarified, purified, and buffer exchanged into a modified Ringer's lactate solution using TFF. Modified polyester sulfone hollow fiber filters with a molecular weight cutoff (MWCO) of 100 kDa were used to remove unpolymerized Hb from solution. The PolyHb solution was concentrated to 12 g/dL. […] The size distribution of PolyHb, by particle volume, was measured using dynamic light scattering (DLS) (Brookhaven Instrument Inc. BS-200M, Holtsville, N.Y.). The rheology of PolyHb solutions was measured using a DV3T-CP cone and plate rheometer (Brookfield AMETEK, Middleboro, Mass.) with cone spindle CPA-40Z. The O2-Hb/PolyHb equilibrium binding curves were measured using a Hemox Analyzer (TCS Scientific Corp., New Hope, Pa.). The Hb/PolyHb kinetics of O2 offloading (koff,O2) and NO dioxygenation kinetics (kox,NO) were measured with an Applied Photophysics SF-17 microvolume stopped-flow spectrophotometer (Applied Photophysics Ltd., Surrey, United Kingdom) using protocols previously described by Rameez and Palmer. […]

Data set [9] in a line: Rheology of PolyHb solutions (cone and plate rheometer). It is filed as physicochemical.
Excerpt: as §4

The test system of data set [10] is Hp. Briefly: Kinetics of Hp binding to Hb and PolyHb, stopped-flow fluorescence. Set-up: species or system human. Particulars: 20° C., PBS 0.1 M pH 7.4. As for the experimental part: The Hp used for this study was purified from human Cohn Fraction IV derived from pooled human plasma. The resulting Hp contained both Hp2-1 and Hp2-2 phenotypes. The total amount of protein in solution was estimated with a Bradford assay. The Hb binding capacity of Hp was assessed by monitoring Hb binding to Hp at 413 nm with HPLC-SEC and was used to quantify the concentration of Hp. The reaction of Hp with either unmodified human Hb or PolyHb synthesized in this study was monitored using an SX-20 stopped stopped-flow spectrophotometer using previously described methods (Applied Photophysics, Leatherhead, UK). Excess Hp (2:1, Hp:PolyhHb on a Hb tetramer binding basis) was allowed to react with PolyHb to form the resulting Hp-PolyHb complex. The resulting changes in size distribution after Hp binding was estimated with HPLC-SEC using previously described methods. All measurements were taken from the same sample used in the animal study.
Target sequence in this assay (P00738 162-406 limits assumed): as above

A short description of data set [11]: O2 equilibrium binding curves of rHb and native Hb (Hemox analyzer). It is filed as biochemical. Particulars: 37° C.; for P50: O2 affinity; for N (cooperativity coefficient n): O2 equilibrium. On the procedure:
rHb Analysis. Various liganded forms of rHb were analyzed via UV-Vis spectroscopy and compared against native Hb. The oxy-rHb and oxyHb equilibrium binding curves were measured using a Hemox analyzer (TCS Scientific Corp., New Hope, Pa.) at 37° C. The spectra of rHb was measured after one day reaction with excess heme (stage 1), after reduction and diafiltration with the modified HEMOX buffer (stage 2), after placing the rHb mixture under a CO atmosphere (stage 3), after heating the CO-rHb mixture and removing precipitate (stage 4), and after re-oxygenating the rHb sample (stage 5). Spectral deconvolution software was developed in the Python programming language (Python Software Foundation Beaverton, Oreg.) using the non-linear least squares function curve_fit of the SciPy package to determine the fraction of various liganded forms of rHb that contribute to the final spectra of the rHb mixture (i.e. containing metHb, hemichrome, oxyHb, HbCO and heme).

Data set [12] can be described thus: Hb/PolyHb NO dioxygenation kinetics, stopped-flow. The format is biochemical. Particulars: 20° C., 0.1 M pH 7.4 PBS.
Excerpt: as §4

For the molecule `[Cl][Al]1[n]2c3c4ccccc4c2N=C2N=C(N=c4c5ccccc5c([n]41)=NC1=NC(=N3)c3ccccc31)c1ccccc12` [Al-PC, aluminum phthalocyanine chloride], the “lethal dose for 50% cell-death (LD50)” value in [1] was 10 µM; in data set [2], 7 µM.
Regarding “Hb in human RBCs: Hb in human red blood cells, literature O2 affinity”, in data set [3], the “O2 affinity P50, literature” value is 29.3.
For the molecule apoHb-Al-PC: Al-PC bound to apoHb, in data set [4], the “stability in aqueous solution” value is recorded as “not stable in aqueous solution”.
In the case of “apoHb-Mn-IX: Mn-porphyrin IX bound to apoHb”, in the data set with Hp [5], the “affinity of Hp” value is given as “higher affinity for apoHb-Mn-IX than to pure apoHb”.
A word on the viscosity: it is the resistance of a fluid to flow. Low readings indicate a thin fluid, high ones a thick fluid. “hHb: human hemoglobin prepared from red blood cells via tangential flow filtration [reference compound]”: in the data set on Hp [6], the “rate constant of Hp binding, literature” value was 129000 M⁻¹ s⁻¹. Besides, the Al-PC binding entry in [7] was “no appreciable binding of Al-PC”. In data set [8], the cooperativity n is recorded as 2.51±0.06 and the “oxygen affinity P50” value stood at 12.4±1.3 mm Hg. Also, the viscosity in data set [9] is given as 1.2±0.2 cP. The “rate constant of Hp binding” value with Hp [10] is 150000 ± 1000 M⁻¹ s⁻¹. In addition, in data set [11], the P50 is listed as 11.69 ± 0.88 mm Hg and the “N (cooperativity coefficient n)” value was 2.73 ± 0.11^. Moreover, in data set [11] (listed as Native hHb), the P50 turned out to be 11.33±0.02 mm Hg and the “N (cooperativity coefficient n)” value is listed as 2.60±0.01. Also, in data set [11] (listed as native Hb), the P50 is 11.69±0.88 mm Hg and the “N (cooperativity coefficient n)” value was found to be 2.73±0.11. The “rate of NO dioxygenation kox,NO” value in data set [12] came out at 36.0±6.1.

Source of the values: US20220218834A1, “APOHEMOGLOBIN-HAPTOGLOBIN COMPLEXES AND METHODS OF USING THEREOF” (OHIO STATE INNOVATION FOUNDATION, priority 2019, published 2022).
